Data as given in patent publication US20200323797A1, “Treatment of Obesity-related Conditions” (INSTITUTO DE MEDICINA MOLECULAR, priority 2017, published 2020).
Values joined by “and” are separate entries in the source; they are usually repeats but may differ in a detail not shown here. Equal entries are not always repeated. Structures can show the parent of a compound that is named as a salt.

Tests used:
C57BL/6 mice [1] = assay: Thermoregulation studies (thermography, rectal probe) during DIO; format: in vivo, mouse; conditions: 2 h post-injection
Experimental: All measurements were done in ad libitum fed mice 2 h post-injections. Rectal temperature was measured with an electronic thermometer (Precision). BAT and Tail thermographic pictures were taken using a Compact-Infrared-Thermal-Imaging-Camera (FLIR; West Mailing) and FLIR-Tools-Software (FLIR; West Mailing) to quantify local temperatures.

C57BL/6 mice [2] = assay: Diet induced obesity, 10 weeks HFD with chronic treatment; format: in vivo, mouse
[3] = system: superior cervical ganglia sympathetic neurons from GCaMP3+ mice; assay: Intracellular calcium imaging of ACh-stimulated sympathetic neurons; format: cell-based, mouse; conditions: 15 μM drug for 24 h; 10 μM ACh for 40 s
Experimental: For Ca^2+ experiments, sympathetic neurons obtained from GCaMP3^+ mice. […] At 7 DIV, coverslips with sympathetic neurons from GCaMP3^+ mice were mounted on an inverted microscope with epifluorescent optics (Axiovert 135TV, Zeiss) equipped with a xenon lamp (located at a Lambda DG-4 (Sutter Instrument) and band-pass filter of 450-490 nm wavelengths. Ca^2+ measurements were performed at 37° C., as reported in Jacob et al., 2014(33) Throughout the experiments the Ach was applied focally through a drug filled micropipette placed under visual guidance over a single neuronal cell. Drug release was performed by focal pressure (10 psi for 40 s) through a Toohey Spritzer pressure System Ile (Toohey Company). […] Images were obtained every 250 ms by exciting the preparations at 450-490 nm and the emission wavelength was set to 510 nm. Neurons were imaged with a cooled CCD camera (Photometrics CoolSNAP fx), processed and analysed using the software MetaFluor (Universal laging, West Chester, Pa.). Ca^2+ levels were recorded at the cell body of neurons (manually defined over the cell profile) in the field of view and variations were estimated as changes of the fluorescence signal over the baseline (ΔF/F0=[(Fpost−Frest)/Frest]).

[4] = system: SCG sympathetic neurons from C57BL/6 mice; assay: Whole cell patch-clamp electrophysiology of sympathetic neurons
C57BL/6 mice [5] = assay: Faecal output and plasma triglycerides during HFD feeding; format: in vivo, mouse
Experimental: (§1) Blood glucose was measured using a glucometer (Accu-Check, Roche). Analysis of Insulin, Triglycerides, Glycerol and FFA levels in plasma as performed using Mouse Ultrasensitive Insulin ELISA (Alpco), Triglyceride Quantification Kit (Abcam), Free Glycerol Reagent (Sigma) and Glycerol Standard Solution (Sigma), and Free Fatty Acid Quantification Kit (MAK044, Sigma), respectively according to manufacturer's instructions.
24 h faecal output was collected and weighed. The faeces were washed with 1×PBS and total triglyceride content was extracted by homogenization and boiling, for 2 cycles of 5 min, in 5% NP-40. Triglyceride content was measured using Triglyceride Quantification Kit (Abcam), according to manufacturer's instructions, and normalized to the weight of total faecal output.

C57BL/6 mice [6] = assay: Acute behaviour and WAT NE content after single IP injection; format: in vivo, mouse
Experimental: NE levels were determined with an NE ELISA kit (Labor Diagnostika Nord GmbH). Tissues were homogenized and sonicated in homogenization buffer (1 N HCl, 1 mM EDTA, 4 mM Sodium metabisulfite), and cellular debris were pelleted by centrifugation at 20,000 g for 10 min at 4° C.). All tissue samples were normalized to total tissue protein concentration.
(§2) After 3 weeks of HFD exposure and treatment, mice were either acclimated to tracking cages for 1 week before starting the 72 h locomotion measurements using the LabMaster tracking system (TSE Systems; Bad Homburg); or filmed for 20-30 min, with a ZEISS optics camera, 1 h post injection inside their normal housing cage, for assessment of total distance traveled. Footage-records were filtered using the video editor Avidemux (Avidemux 2.7.1) and 10 or 15 min distance computations were quantified using the TrackMate tracking plugin from Fiji (Fiji; Wisconsin-Madinson).

[7] = system: LSL-DTR (Control) and TH-cre; LSL-DTR (Symp) mice; assay: High fat diet challenge in Control and sympathectomized (Symp) mice, 6 weeks; format: in vivo, mouse; conditions: for BW gain: 6 weeks HFD, 0.12 mol/kg daily IP; for Locomotor activity, total distance traveled: 10-min video-tracking, 1 h post-injection; for Plasma Glycerol levels: 2 h post-injection; for Food intake: HFD
Experimental: For detailed characterization refer to Pereira et al. 2017(52). Briefly, TH-cre; LSL-DTR mice were used for this experiment and LSL-DTR mice were used as controls. PEGylated Diphtheria Toxin (PEGyDT) was administered once a day for 8 consecutive days (25 ng/g of BW, IP injections). All following experiments were performed at least 24 h post the last injection.
as §1
[…]. Tissues were homogenized and sonicated in homogenization buffer (1 N HCl, 1 mM EDTA, 4 mM Sodium metabisulfite), and cellular debris were pelleted by centrifugation at 20,000 g for 10 min at 4° C.). All tissue samples were normalized to total tissue protein concentration.
as §2

Slc6a2 = molecular target: T1, Slc6a2 (Mus musculus, UniProt O55192); assay: NE uptake by SAMs in SCG explant cultures, SLC6A2 blocker; format: cell-based; conditions: 100 nM Nisoxetine hydrochloride
T1 construct: CD45.2+F4/80+ cells isolated from the SCG of either B6 or Slc6a2−/− mice; from tissue; sorted CD45+F4/80+ sympathetic neuron-associated macrophages (sympathetic neurons are also present)

MAOa = molecular target: T2, MAOa (Mus musculus, UniProt Q64133); assay: NE content of SAMs and medium in SCG explant cultures, MAOA blocker; format: cell-based; conditions: ACh-activated SCG explants; 100 μM Clorgyline, 2 hours
T2 construct: CD45.2+F4/80+ cells isolated from the SCG of either B6 or Slc6a2−/− mice; from tissue; sorted CD45+F4/80+ SAMs (neuronal MAOa may also contribute to NE in the medium)
T2 sequence (Q64133 1-526): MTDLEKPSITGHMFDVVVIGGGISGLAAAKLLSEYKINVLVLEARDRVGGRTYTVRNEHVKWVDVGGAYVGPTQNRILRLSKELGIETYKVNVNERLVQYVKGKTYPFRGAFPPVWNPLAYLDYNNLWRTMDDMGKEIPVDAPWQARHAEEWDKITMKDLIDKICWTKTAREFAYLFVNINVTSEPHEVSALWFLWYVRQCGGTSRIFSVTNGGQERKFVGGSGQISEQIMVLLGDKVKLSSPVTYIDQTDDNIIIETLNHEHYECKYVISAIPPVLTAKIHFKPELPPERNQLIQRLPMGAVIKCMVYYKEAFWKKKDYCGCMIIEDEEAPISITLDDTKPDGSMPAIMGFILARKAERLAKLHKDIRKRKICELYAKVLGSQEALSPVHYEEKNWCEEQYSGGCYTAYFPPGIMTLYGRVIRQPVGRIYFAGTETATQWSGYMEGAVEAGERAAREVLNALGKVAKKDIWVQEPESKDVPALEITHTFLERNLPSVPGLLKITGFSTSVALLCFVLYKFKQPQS
Experimental: SCG were removed from 4-6 weeks old mice under a stereomicroscope and placed in Dulbecco's Modified Eagle's medium (DMEM, Invitrogen, Carlsbad, Calif., U.S.A.). Ganglia were cleaned from the surrounding tissue capsule and transferred into 8-well Tissue Culture Chambers (Sarstedt, Nümbrecht, Germany) that were previously coated with poly-D-lysine (Sigma/Aldrich, Steinheim, Germany) in accordance to the manufacturers instructions. Ganglia were then covered with 5 μl of Matrigel (BD Bioscience, San Jose, Calif., U.S.A.) and incubated for 7 min at 37° C. DMEM without phenol red (Invitrogen) supplemented with 10% fetal bovine serum (Invitrogen), 2 mM L-Glutamine (Biowest, Nuaillé, France) and nerve growth factor (Sigma/Aldrich) were subsequently added. 12 SCG explants cultures were prepared per condition. SCG ganglia were cultured for minimum 24 hours prior to further manipulation. […]
Depolarization of sympathetic neurons in TH-Cre/LSLChR2-YFP explant cultures were performed on a Yokogawa CSUX Spinning Disk confocal using the 488 nm laser line and pointing at the region of interest (ROI) for 200 μs. […] NE in the SCG explant culture medium and sorted CD45, F4/80-double positive cells was determined with NE ELISA kit (Labor Diagnostika Nord GmbH, Nordhorn, Germany, cat # BA E-5200). […]

[8] = fed-state, 2 h post-injection without access to food

T1 sequence (O55192 whole entry): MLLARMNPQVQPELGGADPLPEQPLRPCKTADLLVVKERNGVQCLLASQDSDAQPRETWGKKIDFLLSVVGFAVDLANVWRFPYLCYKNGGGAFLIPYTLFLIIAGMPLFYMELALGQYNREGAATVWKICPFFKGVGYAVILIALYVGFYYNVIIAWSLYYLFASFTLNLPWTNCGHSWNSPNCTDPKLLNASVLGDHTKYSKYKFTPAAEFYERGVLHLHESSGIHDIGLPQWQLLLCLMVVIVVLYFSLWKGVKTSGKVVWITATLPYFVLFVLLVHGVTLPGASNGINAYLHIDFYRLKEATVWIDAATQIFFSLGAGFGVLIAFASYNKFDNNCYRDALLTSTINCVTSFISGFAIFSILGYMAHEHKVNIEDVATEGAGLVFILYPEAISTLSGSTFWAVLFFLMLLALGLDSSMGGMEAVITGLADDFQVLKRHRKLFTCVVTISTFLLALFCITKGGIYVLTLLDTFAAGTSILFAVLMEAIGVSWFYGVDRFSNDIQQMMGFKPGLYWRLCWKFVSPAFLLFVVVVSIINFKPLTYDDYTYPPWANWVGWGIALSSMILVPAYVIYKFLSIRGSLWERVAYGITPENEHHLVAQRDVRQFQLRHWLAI

In the case of `CC(N)Cc1ccccc1` (centres unmarked) [AMPH, Amphetamine], the “Core body temperature (rectal probe)” value (C57BL/6 mice [1]; fourth week of HFD) is reported as 37.94±0.10 °C, the “Tail temperature at the tail base (thermography)” value (C57BL/6 mice [1]; fourth week of HFD) is reported as 30.07±0.54 °C and the “BAT temperature (thermography)” value (C57BL/6 mice [1]; HFD fed mice, fourth week) is reported as 38.25±0.25 °C. For the same compound, the Locomotor activity (C57BL/6 mice [2]; (a.u.), fourth week of HFD) was 53.72±5.27 counts/day, the “NE levels in the liver” value (C57BL/6 mice [2]; HFD fed, per total protein) was 1.327 ± 0.262 ng/mg and the “NE levels in the muscle” value (C57BL/6 mice [2]; HFD fed, per total protein) was 0.493 ± 0.030 ng/mg. The iWAT adipocyte size (C57BL/6 mice [2]; after 10 weeks of HFD) was 1152.0±58.9 μm^2, the “iWAT weight, % of total BW” value (C57BL/6 mice [2]; after 10 weeks of HFD) was 0.92±0.13% and the “NE content in iWAT” value (C57BL/6 mice [2]; after 10 weeks of HFD and treatment, per total protein) was 1.166 ± 0.263 ng/mg. For the same compound, the BW gain (C57BL/6 mice [2]; after 10 weeks of HFD, 0.12 mol/kg daily IP) was 20.49±2.10%, the Daily food intake (C57BL/6 mice [2]; during HFD and treatment) was 2.17 ± 0.09 g/day and the “Circulating plasma insulin levels” value (C57BL/6 mice [2]; [8]) was 0.582 ± 0.020 ng/mL. The “Plasma Free Fatty Acids” value (C57BL/6 mice [2]; [8]) was 0.766 ± 0.043 µmol/mL, the “Plasma Glycerol” value (C57BL/6 mice [2]; [8]) was 11.771 ± 1.249 µmol/mL and the “TGs content in muscle” value (C57BL/6 mice [2]; per total protein) was 11.54 ± 0.17 µmol/mg. For the same compound, the “TGs content in the liver” value (C57BL/6 mice [2]; per total protein) was 16.23 ± 1.95 µmol/mg, the “ACh-induced intracellular [Ca2+] increase, ΔF/F0” value [3] was 1.71±0.05 and the Resting membrane potential [4] was −35.70±1.02 mV. For the same compound, the “Changes in resting membrane potential” value ([4]; AMPH vs Vehicle, FIGS. 5A, B) was “no significant changes”, the Maximum firing frequency ([4]; current-clamp mode) was 37.60±1.07 Hz and 41.00±1.43 Hz and the “Total 24 h faecal output” value (C57BL/6 mice [5]; HFD feeding) was 0.48 ± 0.03 g. For the same compound, the “Faecal triglycerides (TGs) levels” value (C57BL/6 mice [5]; HFD feeding, per mg of faeces) was 1.89 ± 0.15 nmol/mg, the “Plasma TGs levels” value (C57BL/6 mice [5]; [8]) was 3.48 ± 0.01 µmol/mL and the “Locomotion, total distance traveled” value (C57BL/6 mice [6]; 15-min video-tracking, 1 h post-injection) was 70.45±7.54 m. For the same compound, the “NE content in iWAT” value (C57BL/6 mice [6]; 2 h post-injection) was 9.69 ± 1.49 ng/mg, the “NE content in gWAT” value (C57BL/6 mice [6]; 2 h post-injection, per total tissue protein) was 6.63 ± 0.58 ng/mg and the Food intake (C57BL/6 mice [6]; 24 h post-injection, 0.12 mol/kg IP) was 2.57 ± 0.15 g. The “NE content in inguinal WAT” value ([7]; Control mice) was 2.58±0.28 ng/mg of total tissue protein, the BW gain ([7]; Control mice) was 12.67±1.79% and the “Locomotor activity, total distance traveled” value ([7]; Control mice) was 21.88±1.09 m. The “Plasma Glycerol levels” value ([7]; Control mice) was 89.70 ± 10.20 µg/mL, the Food intake ([7]; Control mice) was 2.08 ± 0.25 g/day and the “NE content in inguinal WAT” value ([7]; Symp mice) was 1.51 ± 0.20 ng/mg. The BW gain ([7]; Symp mice) was 39.19±4.54%, the “Locomotor activity, total distance traveled” value ([7]; Symp mice) was 24.30±2.88 m and the “Plasma Glycerol levels” value ([7]; Symp mice) was 59.07 ± 7.83 µg/mL. The Food intake ([7]; Symp mice) was 2.00 ± 0.12 g/day.

`CNCCC(Oc1ccccc1OC)c1ccccc1` (centres unmarked) [Nisoxetine, Nisoxetine hydrochloride] was tested, and the “NE accumulation in SAMs” value (Slc6a2; ACh-activated SCG explants, 2 hours) was “prevented NE accumulation in SAMs” and the “Uptake of NE by SAMs (NE content in CD45+F4/80+ cells)” value (Slc6a2; optogenetic stimulation of SCG explants) was “prevented”.

In the case of `C#CCN(C)CCCOc1ccc(Cl)cc1Cl` [clorgyline, Clorgyline], the “Intracellular NE levels in SAMs” value (MAOa) is reported as “nearly double intracellular NE levels” and the “NE levels in medium” value (MAOa) is reported as “increased NE levels in medium”.
